The source of these data is BindingDB's records for patent US9328118 (Astellas Pharma Inc, 2016).

The experiment addresses Cathepsin S (Homo sapiens, UniProt P25774). Put plainly: Inhibition Assay. Here is the method: 5 μL of a human cathepsin S enzyme (R&D1183-CY-010) was added to a 96-well plate so as to be 20 ng/well.

Each structure is given as a SMILES string. pIC50: −log10 of the molar value.

Chain of Cathepsin S (P25774 whole entry): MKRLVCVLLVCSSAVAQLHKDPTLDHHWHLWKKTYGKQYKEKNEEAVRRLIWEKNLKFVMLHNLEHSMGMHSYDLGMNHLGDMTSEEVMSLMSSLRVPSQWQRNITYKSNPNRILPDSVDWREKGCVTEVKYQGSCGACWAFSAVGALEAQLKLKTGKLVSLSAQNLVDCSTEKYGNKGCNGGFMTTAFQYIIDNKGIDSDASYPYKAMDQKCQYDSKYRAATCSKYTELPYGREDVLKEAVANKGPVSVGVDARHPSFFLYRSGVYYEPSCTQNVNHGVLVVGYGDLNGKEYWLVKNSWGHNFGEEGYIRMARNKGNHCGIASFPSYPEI

`CN(C)C(=O)CN1CCC(CCOc2ccc(-c3nc(C#N)nc4c3ncn4C)cc2C(F)(F)F)CC1` [US9328118, 72] had a pIC50 of 8.80.
